Patent publication US12291534B2, “Aminonorbornane derivative and manufacture method therefor and use thereof” (TRANSTHERA SCIENCES (NANJING), INC., priority 2018, dated 2025)
pIC50: −log10 of the molar value.

Tests used:
[1] = test system: OCI-LY10 xenograft tumor; test: OCI-LY10 xenograft tumor model in CB17/SCID mice; type: in vivo; settings: for anti-tumor activity (in words): OCI-LY10 xenograft tumor model
Experimental: (§1) CB17/SCID female mice with serious immune deficiency were purchased from Beijing Vital River Laboratory Animal Technology Co., Ltd. and bred in SPF animal houses. Human OCI-LY10 cells (Shanghai Junrui-UFBN0102) were cultured in an RPMI 1640 culture medium containing 10% fetal bovine serum, 100 U/mL penicillin and 100 μg/mL streptomycin through monolayer culture in vitro in an incubator (37° C. 5% CO2). Routine treatment was performed twice a week for passaging. At a cell saturation of 80%-90% and a required number, the cells were harvested and counted, 0.2 mL (1×10^7) of OCI-LY10 cells (together with matrigel at a volume ratio of 1:1) were subcutaneously inoculated into the right back of each mouse, and the tumor size could be measured about one week after inoculation. Tumor size was measured using a vernier caliper and tumor volume was calculated using the following formula: tumor volume=(length×width^2)/2.

[2] = test system: TMD-8 xenograft tumor; test: TMD-8 xenograft tumor model in CB17/SCID mice; type: in vivo; settings: for anti-tumor activity (in words): TMD-8 xenograft tumor model
Experimental: as §1, with “TMD-8” for “OCI-LY10”, “Junrui-UFBN1682)” for “Junrui-UFBN0102)”, “C.,” for “C.”, “volume […].” for “volume=(length×width^2)/2.”

[3] = test system: OCI-LY10; test: In vitro tumor cell proliferation inhibition (CellTiter-Glo), OCI-LY10; type: cell-based, human
Experimental: (§2) 2. Experiment on In Vitro Tumor Cell Proliferation Inhibition (1) Method • The tumor cell line (TMD-8/OCY-LY10) was suspended in RPMI1640+FBS10% and cultured in an incubator (37° C. 5% CO2). Cells were passaged periodically, and cells at logarithmic growth phase were collected for plating. • Cell staining was performed with trypan blue and viable cells were counted. • Cell concentration was adjusted to 7000 cells/well with medium. • 90 μL of cell suspension was added to a 96-well plate and cell-free culture medium was added to the blank control wells. • Cells in the 96-well plate were incubated overnight in an incubator (37° C., 5% CO2, 100% relative humidity). • Preparation of 400× compound storage plates: test compounds and reference drug were each dissolved in DMSO and 3× diluted from the highest concentration (400 μM) to the lowest concentration (0.61 μM). • Preparation of 10× compound working solutions: 78 μL of cell culture medium was added to a V-bottom 96-well plate, and 2 μL of the compound was pipetted from the 400× compound storage plate into the 96-well plate. Vehicle control wells and blank control wells were added with 2 μL of DMSO. […] Inhibition rates of compounds at different concentrations were calculated in Excel, followed by plotting the inhibition curves and calculating IC50 values with GraphPad Prism. […]

[4] = test system: TMD-8; test: In vitro tumor cell proliferation inhibition (CellTiter-Glo), TMD-8; type: cell-based, human
Experimental: as §2

[5] = molecular target: BTK (C481S) (Homo sapiens (Human), UniProt Q06187, C481S); test: pBTK inhibition in HEK293 cells transfected with BTK(C481S) (ELISA); type: cell-based; settings: 2 h incubation
Experimental: For positive (high signal) controls, cells were treated with 0.5% DMSO alone.

BTK (C481S), sequence (Q06187 whole entry C481S): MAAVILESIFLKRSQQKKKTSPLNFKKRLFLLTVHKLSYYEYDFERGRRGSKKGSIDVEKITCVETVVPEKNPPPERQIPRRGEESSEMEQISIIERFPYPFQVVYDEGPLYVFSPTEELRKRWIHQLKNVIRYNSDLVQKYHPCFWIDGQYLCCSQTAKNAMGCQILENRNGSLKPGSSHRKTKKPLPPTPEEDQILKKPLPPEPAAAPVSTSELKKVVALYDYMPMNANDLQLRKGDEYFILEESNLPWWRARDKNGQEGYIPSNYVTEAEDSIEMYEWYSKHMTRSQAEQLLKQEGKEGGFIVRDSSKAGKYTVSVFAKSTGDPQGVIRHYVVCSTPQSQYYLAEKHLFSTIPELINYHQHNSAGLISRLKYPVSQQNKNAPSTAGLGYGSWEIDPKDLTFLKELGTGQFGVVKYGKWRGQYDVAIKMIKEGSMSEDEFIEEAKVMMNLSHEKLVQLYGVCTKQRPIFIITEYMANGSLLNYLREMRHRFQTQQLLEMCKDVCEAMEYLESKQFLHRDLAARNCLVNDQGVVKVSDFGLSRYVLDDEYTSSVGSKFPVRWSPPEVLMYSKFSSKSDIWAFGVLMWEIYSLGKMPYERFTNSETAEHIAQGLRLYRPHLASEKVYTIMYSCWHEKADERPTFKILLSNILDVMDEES

| Structure (SMILES) | anti-tumor activity (in words) [1] | anti-tumor activity (in words) [2] | inhibition of tumor cell proliferation (in words) [3] | inhibition of tumor cell proliferation (in words) [4] | disappearance of xenograft tumors ([1]; 25 mg/kg bid, after 28 days of administration) | disappearance of xenograft tumors ([1]; 50 mg/kg bid, after 21 days of administration) | tolerance of tumor-bearing mice ([1]; all dosages (25, 50 mg/kg bid)) | body weight of tumor-bearing mice ([1]; all treatment groups) | pIC50 [5] | fraction of xenograft tumors disappeared ([2]; 50 mg/kg bid, after 27 days of administration) | tolerance of tumor-bearing mice ([2]; all dosages (25, 50 mg/kg bid)) | body weight of tumor-bearing mice ([2]; all treatment groups) |
| --- | --- | --- | --- | --- | --- | --- | --- | --- | --- | --- | --- | --- |
| C=CC(=O)N1CCC[C@@H](n2nc(-c3ccc(Oc4ccccc4)cc3)c3c(N)ncnc32)C1 [Ibrutinib, reference compound] | extremely strong anti-tumor activity | extremely strong anti-tumor activity | strong inhibition activity | strong inhibition activity | – | – | – | – | – | – | – | – |
| Nc1nccn2c(C34CCC(NC(=O)CN5CCOCC5)(CC3)C4)nc(-c3ccc(C(=O)Nc4cc(C(F)(F)F)ccn4)cc3)c12 [Compound A-10-10, 4-(8-amino-3-(4-(2-morpholinoacetamido)bicyclo[2.2.1]heptan-1-yl)imidazo[1,5-a]pyrazin-1-yl)-N-(4-(trifluoromethyl)pyridin-2-yl)benzamide] | extremely strong anti-tumor activity | extremely strong anti-tumor activity | strong inhibition activity | strong inhibition activity | disappeared completely | completely disappeared | good tolerance | no significant weight loss | 7.20 | ⅝ | good tolerance | no significant weight loss |
